The text below walks through data of patent publication US10980765B2, “Isothiocyanatostilbenes as a novel method and product for treating cancer” (BOARD OF SUPERVISORS OF LOUISIANA STATE UNIVERSITY AND …, priority 2015, dated 2021).

In data set [1] the target is T1, EGFR (Homo sapiens, UniProt P00533).
T1 construct: endogenous in cells; host or cells: DU145
Nature of the data set: Western blot of EGFR activation by EGF in DU145 cells. Type of data set: cell-based. As to conditions: 4 μM DIDS or 25 μM H2DIDS; DU145, 100 ng/ml EGF 20 min. On the procedure:
Western blot analysis: Cells were grown to ˜70% confluency prior to treatment. Cells were serum-starved in serum-free media for 30 minutes prior to treatment in complete media or serum-free media for the indicated times. Cell lysates were collected in Laemmli (125 mM Tris, 4% SDS, 0.01% bromophenol blue, 30% sucrose) containing 0.5% β-mercaptoethanol and boiled ˜8 minutes. Primary antibodies include: phospho-c-Met (Y1234/1235), phospho-Akt (S473), pEGFR […], pIGF-IRβ (Y1135/1136) (Cell Signaling Technology; Beverly, Mass.); α-actin (Sigma-Aldrich), c-Met (C-28) (Life Technologies). Secondary antibodies include: horseradish peroxidase-conjugated anti-rabbit and anti-mouse (GE Healthcare; Pittsburgh, Pa.). ECL 2 was used for chemiluminescent detection (Thermo Scientific; Rockford, Ill.). Densitometry was calculated using ImageJ (NIH).

In data set [2] the test system is DU145 cells. As to the kind of experiment: Scattering assay. Type of data set: cell-based. As to conditions: 4 μM DIDS or 25 μM H2DIDS. On the procedure:
(§1) Cells were fixed and stained for actin. Representative images are shown. […] Data are shown as mean±S.E.M.; n=3.
Cells were fixed and stained for actin. Representative images are shown.
Scattering assay: DU145 cells were grown to ˜50% confluency. […] Cells were fixed with 4% paraformaldehyde and stained with Oregon Green 488 phalloidin (Invitrogen; Carlsbad, Calif.). Images were acquired on an Eclipse TE300 inverted microscope (Nikon; Tokyo, Japan) with NIS Elements version 4.13.04 software. Presented images were taken using a 10× objective.

The subject of data set [3] is DU145 cells. Nature of the data set: Wound healing. Type of data set: cell-based. On the procedure: as §1
For invasion (FIGS. 4C and 4D), wounded cells were overlaid with Matrigel diluted 1:5 in serum-free media; n=3.
Wound healing and invasion: DU145 cells were grown to ˜100% confluency prior to wounding with the IncuCyte™ WoundMaker™ (Essen Bioscience; Ann Arbor, Mich.) and washed once with complete media. For invasion, cells were covered with Matrigel diluted 1:5 in serum-free RPMI following wounding. […] Images were taken every 4 hours with the IncuCyte™ ZOOM imaging system (Essen Bioscience). Quadruplicate replicates were used in each experiment. Data are presented as percent wound density ±standard error of the mean (S.E.M.).

In data set [4] the test system is DU145 spheroids. As to the kind of experiment: 3D spheroid proliferation. As to conditions: 33 ng/mL HGF, Matrigel, 72 hours. Type of data set: cell-based. On the procedure: Data are shown as the percent change in growth from T=0 to T=72 hours. For each of the six independent variables in each bar graph, a representative image at the 72 hour time point is shown. The six corresponding images below each respective bar graph
3D spheroid proliferation: Prior to seeding, cells were incubated with 2.5 ng/μl CellTracker Red (Life Technologies) in complete DMEM lacking Phenol Red for 5 minutes at room temperature then centrifuged at 1000 RPM for 5 minutes. […] The mixture of cells, treatments, and Matrigel in complete media was seeded at 2000 cells/well in a 96 well plate. The plate was centrifuged at 1000 RPM for 3 minutes to collect the cells into the bottom of the plate. Spheroid growth was imaged for up to 80 hours and analyzed for average red object area using the IncuCyte™ ZOOM software. Data are shown as percent change in spheroid growth between TO and […] with HGF normalized to 100% change in growth. Images were captured by the IncuCyte™ ZOOM imaging system and representative 10× images are shown.

The nature of data set [5]: Xenograft study, tolerability (body weight, clinical observation). Type of data set: in vivo, Athymic nude mice. An excerpt: Data are shown as average+S.E.M., *p<0.05.
Xenograft studies: All animal experiments were approved by the Institutional Animal Care and Use Committee, University of Louisiana at Monroe, and were handled in strict accordance with good animal practice as defined by the NIH guidelines. Athymic nude mice (Foxn1^nu/Foxn1^+, 4-5 weeks, female) were purchased from Harlan (Indianapolis, Ind.). The mice had free access to standard pellet food and water. The animals were acclimated to animal house facility conditions at a temperature of 18-25° C., with a relative humidity of 55 to 65% and a 12 h light/dark cycle, for one week prior to the experiments. MDA-MB-231/GFP human breast cancer cells were cultured and resuspended in serum-free DMEM medium (20 μl). After anesthesia, cell suspensions (1×10^6 cells/20 μl) were inoculated subcutaneously into the second mammary gland fat pad just beneath the nipple of each animal to generate orthotopic breast tumors. […] The mice were monitored by measuring tumor volume, body weight, and clinical observation. Tumor volume (V) was calculated by V=L/2×W^2, where L was the length and W was the width of tumors. The results are presented as average ±S.E.M. Differences among various treatment groups were determined by the analysis of variance (ANOVA) followed by Dunnett's test using PASW statistics version 18. […]

Data set [6] has as its system interaction of human immunodeficiency virus type-1 (HIV-1) with CD4 T-cell receptors. As to conditions: cited from earlier work.

Molecules are shown by their SMILES.

T1 sequence (P00533 25-1210): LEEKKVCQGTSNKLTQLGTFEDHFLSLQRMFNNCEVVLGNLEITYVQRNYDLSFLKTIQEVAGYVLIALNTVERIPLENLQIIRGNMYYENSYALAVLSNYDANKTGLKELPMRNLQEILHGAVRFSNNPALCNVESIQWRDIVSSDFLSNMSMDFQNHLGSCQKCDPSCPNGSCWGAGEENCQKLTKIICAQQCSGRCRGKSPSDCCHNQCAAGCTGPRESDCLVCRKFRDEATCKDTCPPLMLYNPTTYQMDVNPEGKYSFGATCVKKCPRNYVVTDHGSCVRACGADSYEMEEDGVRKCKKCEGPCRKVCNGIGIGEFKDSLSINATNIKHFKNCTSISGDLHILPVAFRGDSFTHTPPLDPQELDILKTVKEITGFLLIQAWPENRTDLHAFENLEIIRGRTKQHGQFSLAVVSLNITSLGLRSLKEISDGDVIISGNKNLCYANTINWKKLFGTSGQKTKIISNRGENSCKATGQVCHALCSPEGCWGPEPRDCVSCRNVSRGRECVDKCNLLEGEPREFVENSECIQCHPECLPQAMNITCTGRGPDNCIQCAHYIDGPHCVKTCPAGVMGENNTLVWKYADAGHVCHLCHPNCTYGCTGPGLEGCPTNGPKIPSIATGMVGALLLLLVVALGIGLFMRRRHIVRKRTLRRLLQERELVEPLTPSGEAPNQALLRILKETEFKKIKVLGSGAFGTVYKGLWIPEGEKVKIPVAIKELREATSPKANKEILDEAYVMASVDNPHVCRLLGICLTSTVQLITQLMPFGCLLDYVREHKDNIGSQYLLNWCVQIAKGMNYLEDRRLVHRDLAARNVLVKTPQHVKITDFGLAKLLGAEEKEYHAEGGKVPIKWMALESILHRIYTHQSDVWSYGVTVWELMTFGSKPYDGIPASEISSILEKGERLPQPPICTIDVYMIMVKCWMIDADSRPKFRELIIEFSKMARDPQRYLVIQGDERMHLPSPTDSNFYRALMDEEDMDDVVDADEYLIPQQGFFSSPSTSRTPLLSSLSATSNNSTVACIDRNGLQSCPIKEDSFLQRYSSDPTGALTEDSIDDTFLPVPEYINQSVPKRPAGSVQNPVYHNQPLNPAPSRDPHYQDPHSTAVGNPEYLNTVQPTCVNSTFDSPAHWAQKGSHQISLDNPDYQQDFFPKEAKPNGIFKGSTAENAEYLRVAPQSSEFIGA

`O=S(=O)(O)c1cc(N=C=S)ccc1C=Cc1ccc(N=C=S)cc1S(=O)(=O)O` [DIDS, 4,4′-Diisothiocyanatostilbene-2,2′-disulfonic acid]: the EGFR activation entry in data set [1] is recorded as “do not significantly reduce”. For the same molecule, the HGF-induced cell scattering result in data set [2] (33 ng/ml HGF overnight) is reported as “able to reduce HGF-induced”. Further, the EGF-induced cell scattering entry in data set [2] (100 ng/ml EGF overnight) was “not EGF-induced”. In data set [3] (4 μM DIDS or 25 μM H2DIDS, 33 ng/ml HGF), the HGF-induced wound healing result was “significantly reduced”. Also, the EGF-mediated wound healing result in data set [3] (4 μM DIDS or 25 μM H2DIDS, 100 ng/ml EGF) is “minimal effects”. Moreover, the “HGF-induced wound healing, dose response” value in data set [3] (indicated concentrations, 33 ng/mL HGF) is reported as “reduce HGF-induced wound healing in a dose response manner”. In addition, the “lowest concentration with some inhibitory effects on HGF-induced spheroid growth” value in data set [4] is reported as 40 nM. In data set [4] (5 μM compound), the “decrease of HGF-induced DU145 spheroid growth” value is about 60%. Besides, the signs of toxicity entry in data set [5] (5 mg/kg intraperitoneally, ˜2 weeks, mice) is listed as “No obvious signs of toxicity”. Also, the “body weight compared to DMSO control” value in data set [5] (5 mg/kg then 10 mg/kg i.p., 3×/week) is on record as “no change in body weight”. Besides, the “concentration preventing interaction of HIV-1 with CD4 T-cell receptors” value in data set [6] is given as “low micromolar concentrations”.
